Source: patent US20110039873A1, “SUBSTITUTED PYRAZOLO[1,5-a] PYRIDINE COMPOUNDS HAVING MULTI-TARGET ACTIVITY” (priority 2009, published 2011)
Read-outs that look alike come from different tables or passages of the source.

Key:
[1] = biological target: T1, recombinant human phosphodiesterase 10A1 enzyme (Homo sapiens, UniProt Q9Y233); assay: PDE10 inhibition assay (PDELight); format: biochemical; details: for IC50: 1 uM cAMP, read-out: PDE 10 Inhibition (IC50 in μM); for PDE-10 inhibition (in words): Table 2
T1 construct: purchased BPS Biosciences; host or cells: Baculovirus infected Sf9 cells
T1 sequence (Q9Y233 1-779 isoform Q9Y233-1): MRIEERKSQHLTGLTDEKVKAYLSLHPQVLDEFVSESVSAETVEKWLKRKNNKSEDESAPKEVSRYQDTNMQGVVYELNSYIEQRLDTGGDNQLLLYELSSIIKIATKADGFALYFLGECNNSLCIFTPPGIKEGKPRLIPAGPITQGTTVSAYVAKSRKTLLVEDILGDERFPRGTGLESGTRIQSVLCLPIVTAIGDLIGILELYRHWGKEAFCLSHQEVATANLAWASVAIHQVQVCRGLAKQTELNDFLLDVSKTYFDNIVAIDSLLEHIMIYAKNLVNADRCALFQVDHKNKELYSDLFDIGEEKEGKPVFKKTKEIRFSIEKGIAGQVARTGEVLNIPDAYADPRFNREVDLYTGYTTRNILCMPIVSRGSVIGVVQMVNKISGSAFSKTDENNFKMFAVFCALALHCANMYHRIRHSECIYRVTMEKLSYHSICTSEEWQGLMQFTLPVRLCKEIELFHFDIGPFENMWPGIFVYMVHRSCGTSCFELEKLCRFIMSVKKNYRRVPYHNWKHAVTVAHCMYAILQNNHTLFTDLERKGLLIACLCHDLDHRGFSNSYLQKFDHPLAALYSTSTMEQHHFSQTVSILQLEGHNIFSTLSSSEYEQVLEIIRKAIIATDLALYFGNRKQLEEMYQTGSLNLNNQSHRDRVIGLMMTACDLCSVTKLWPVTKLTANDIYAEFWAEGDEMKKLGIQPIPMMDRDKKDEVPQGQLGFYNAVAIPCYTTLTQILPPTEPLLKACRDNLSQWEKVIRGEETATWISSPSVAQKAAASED

[2] = system: phosphorylated c-Jun (serine-73); assay: Phosphorylated c-JUN (6-OHDA), SH-SY5Y; format: cell-based; details: Homo sapiens, 50 uM 6-hydroxydopamine, 1.5 hours, read-out: p-cJun 6-OHDA SH-SY5Y (EC50 in μM)
Outline: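 SH-SY5Y cells challenged with 50 uM 6-hydroxydopamine with or without compound (0-30 uM) for 1.5 hours, then paraformaldehyde-fixed. Phospho-c-Jun (Ser73) quantified by cell-based ELISA.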

[3] = biological target: T2, recombinant full length human JNK3 enzyme (Homo sapiens, UniProt P53779); assay: JNK 3 inhibition assay (ATP depletion, luciferase); format: biochemical; details: for IC50: 10 uM ATP, ATF2 substrate; for JNK-3 inhibition (in words): see Table 2
T2 construct: recombinant full length human JNK2 or JNK3 enzyme; purchased Upstate; host or cells: Sf21 cells
T2 sequence (P53779 whole entry): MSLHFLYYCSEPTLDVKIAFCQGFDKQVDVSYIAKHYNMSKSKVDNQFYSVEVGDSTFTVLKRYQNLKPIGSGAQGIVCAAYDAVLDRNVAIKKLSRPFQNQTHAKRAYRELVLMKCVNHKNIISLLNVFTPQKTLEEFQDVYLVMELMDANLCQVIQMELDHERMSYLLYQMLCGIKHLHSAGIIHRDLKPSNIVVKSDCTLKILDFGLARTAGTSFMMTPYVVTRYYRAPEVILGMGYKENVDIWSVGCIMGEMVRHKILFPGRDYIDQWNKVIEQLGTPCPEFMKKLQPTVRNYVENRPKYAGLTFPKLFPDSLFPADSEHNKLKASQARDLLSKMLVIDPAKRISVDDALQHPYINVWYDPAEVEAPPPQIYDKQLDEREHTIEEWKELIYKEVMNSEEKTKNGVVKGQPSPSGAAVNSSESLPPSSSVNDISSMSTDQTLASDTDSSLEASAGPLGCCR
Experimental: In a 96-well plate, recombinant full length human JNK2 or JNK3 enzyme (40 ng) expressed in Sf21 cells (Upstate) was incubated with the substrate ATF2 (3 uM) for 1 hour in the presence of 10 uM ATP. […] The ATP levels were quantified using luciferase with luminescence read on a Victor Light 1420 luminometer. IC50 calculations were plotted using a nonlinear regression curve fit.

[4] = Oral pharmacokinetic evaluation; format: in vivo, rat; details: Sprague-Dawley rats; for half-life / AUC(0-t) / Cmax: male, rat, plasma; for half-life: Sprague-Dawley, po, 15 mg/kg; for AUC(0-t): read-out: Oral PK AUClast; for Cmax: read-out: Oral PK Cmax
Experimental: Three male Sprague-Dawley rats were dosed orally via gavage with 15 mg/kg of test compound. Serial blood samples were collected from the jugular vein at 5, 15, and 30 min, 1, 3, and 6 hours post dosing. Samples were processed for plasma via centrifugation and plasma samples were stored frozen prior to analysis via a sensitive and specific HPLC/MS/MS method. PK parameters were calculated using WinNonLin (Pharsight).

[5] = system: at least one of JNK 3 or JNK 2 and at least one of PDE 10 or PDE 4; assay: Dual inhibition (phosphodiesterase and JNK); format: biochemical, human; details: IC50 JNK 3 or JNK 2 less than about 5.00 μM and PDE 10 or PDE 4 less than about 20.0 or 30.0 μM
Outline: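 JNK2/JNK3: full-length human enzyme with 3 uM ATF2 and 10 uM ATP for 1 h, ATP depletion by luciferase luminescence. PDE4B catalytic domain with 5 uM cAMP, or PDE10A1 with 1 uM cAMP, 1 h; AMP converted to ATP for luminescence. Compounds 0–30 uM; IC50 by nonlinear regression.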

[6] = system: phosphorylated c-Jun (serine-73); assay: Phosphorylated c-JUN (A-beta), E18 rat neuronal cells; format: cell-based; details: Amyloid Beta peptide 30 uM, 3 hours, read-out: p-cJun Abeta E18 (EC50 in μM)
Experimental: (§1) In 96-well plates either human SH-SY5Y neuroblastoma cells at 2.5×10^4 cells/well or E18 rat neuronal cells at 1.5×10^4 cells/well were seeded. To each well the following was added, Amyloid Beta peptide 1-25 (source) at a concentration of 30 uM, retinoic acid (10 uM) and test compounds (0-30 uM) and incubated for 3 hours. Supernatant was discarded and cells were fixed with 4% paraformaldehyde (100 ul/well) for 20 minutes. FACE cell based ELISA assay (Active Motif) was performed specific for quantifying phosphorlyated c-Jun (serine-73).

[7] = system: phosphorylated c-Jun (serine-73); assay: Phosphorylated c-JUN (A-beta), SH-SY5Y; format: cell-based; details: Homo sapiens
Experimental: as §1, with “To each well the following was added, Amyloid Beta peptide 1-25 (source) at a concentration of 30 uM, retinoic acid (10 uM) and test compounds (0-30 uM) and incubated for 3 hours.” left out

[8] = 15 mg/kg oral gavage, read-out: Oral PK T½ (converted)
[9] = Amyloid Beta peptide 30 uM, 3 hours, read-out: p-cJun Abeta SH-SY5Y (EC50 in μM)
[10] = read-out: p-cJun SH-SY5Y (EC50 in μM), no Abeta

IC50 [1] [µM]	PDE-10 inhibition (in words) [1]	EC50 [2] [µM]	IC50 [3] [µM]	half-life [4, 8] [h]	AUC(0-t) ([4]; 15 mg/kg oral gavage) [ng·h/mL]	Cmax ([4]; 15 mg/kg oral gavage) [ng/mL]	dual inhibition (phosphodiesterase and JNK) [5]	EC50 [6] [µM]	EC50 [7, 9] [µM]	JNK-3 inhibition (in words) [3]	EC50 [7, 10] [µM]	half life following oral dosing (in words) ([4]; oral)	half-life ([4]; oral, read-out: half life following oral dosing) [h]	Compound
9.9	particularly effective	6.1	2.6	1.2	52	26	effective dual inhibitors	3	> 30					CC(C)Nc1nccc(-c2c(C(C)C)nn3ccccc23)n1 [AV1137, N-isopropyl-4-(2-isopropylpyrazolo[1,5-a]pyridin-3-yl)pyrimidin-2-amine]
5.8	particularly effective	3.1	0.3		12	17	effective dual inhibitors	1.4	2.9	particularly effective	1.1			CC(C)Nc1nccc(-c2cnn3ccccc23)n1 [AV1164, N-isopropyl-4-(pyrazolo[1,5-a]pyridin-3-yl)pyrimidin-2-amine]
7.5	particularly effective	1.1	0.2		< 5		effective dual inhibitors	15		particularly effective	7.6			c1ccn2ncc(-c3ccnc(NC4CCCC4)n3)c2c1 [AV1165, N-cyclopentyl-4-(pyrazolo[1,5-a]pyridin-3-yl)pyrimidin-2-amine]
7.4	particularly effective	7.7	1.2	9.4	462	122	effective dual inhibitors			particularly effective		particularly prolonged half lives	> 3	CC(C)Nc1nccc(-c2c(C3CC3)nn3ccccc23)n1 [AV1173, 4-(2-cyclopropylpyrazolo[1,5-a]pyridin-3-yl)-N-isopropylpyrimidin-2-amine]
